A short description of the series: Solubility of piroxicam in PEG400 (HPLC). The format is physicochemical. The note with it: piroxicam in PEG400, excess stirred 2 weeks at room temperature, HPLC analysis.

In the case of `CN1C(C(=O)Nc2ccccn2)=C(O)c2ccccc2S1(=O)=O` [piroxicam], the solubility was 1.6%.

Source of the values: patent publication US6537576B1, “Biologically active composition” (Bioglan AB, priority 1998, dated 2003).
